# US6325989A, “Form of dipeptidylpeptidase IV (CD26) found in human serum” (Dana-Farber Cancer Institute, Inc., priority 1995, dated 2001)
# Residues, ends and D or L forms follow the SMILES beside them. *: point of attachment. pNA = O=[N+]([O-])c1ccc(N*)cc1
# Columns and labels:
# [1] = system: soluble serum DPPIV/CD26, 175 kDa form, purified from normal human serum; assay: DPPIV activity assay (hydrolysis of Gly-Pro-pNA; Michaelis-Menten kinetics and inhibition); format: biochemical
# Procedure: (§1) The DPPIV enzyme activities of the rsCD26 and serum DPPIV were analyzed by Michaelis-Menten kinetics by assessing kinetics of hydrolysis of substrate at different concentrations. […] To further exclude the possibility that we had purified irrelevant aminopeptidases which, working in concert or by sequential hydrolysis, could release the pNA chromophore from substrate, we tested a number of substrates which could be hydrolyzed by non-DPPIV aminopeptidases. One candidate for sequential hydrolysis is aminopeptidase M (3.4.11.2), but no hydrolysis of Ala-pNA, Arg-pNA or Leu-pNA was observed and activity by aminopolypeptidase (3.4.11.14) may be similarly excluded. The substrate succinyl-Gly-Pro-pNA was also not hydrolyzed. The only substrate apart from the dipeptide chromatogen Gly-Pro-pNA which could be hydrolyzed was Val-Ala-pNA, which was cleaved by both the serum DPPIV and rsCD26 (relative to rate of hydrolysis of Gly-Pro-pNA, hydrolysis of Val-Ala-pNA was 0.098 and 0.079, for rsCD26 and serum DPPIV, respectively). Although DPPIV primarily hydrolyses dipeptides with a proline in the penultimate position, it is well documented that alanine in the penultimate position may also render a dipeptide sequence susceptible to cleavage by DPPIV (8). […]
# The primary substrate used for determining DPPIV activity in all assays was Gly-Pro-p-nitroanilide (Gly-Pro-pNA; Sigma), which is hydrolyzed by DPPIV to release pNA absorbing strongly at 405 nm. […] Inhibition of the hydrolysis of Gly-Pro-pNA was determined in the presence of the specific DPPIV inhibitor Diprotin A (Bachem, King of Prussia, Pa.). […] The pH optimum was determined substituting phosphate buffer (100 mM, pH4.5-pH9) in place of standard incubation buffer.
# Serum DPPIV was prepared by isolating from 100 ml of pooled normal human male AB serum the fraction of protein precipitated by 50-70% saturated ammonium sulfate. […] The DPPIV activity was eluted by a 0-0.5M NaCl gradient in equilibration buffer and all DPPIV activity was found in the 10 mM-50 mM NaCl eluate (determined by conductance). […]
# [2] = biological target: T1, recombinant soluble CD26 (rsCD26), full extracellular domain of human T cell membrane CD26/DPPIV, 105 kDa form, from transfected CHO cells (Homo sapiens, UniProt P27487); assay: as above; format: biochemical
# T1 construct: The full extracellular domain of T cell membrane-expressed CD26 (rsCD26); made in house; host or cells: transfected CHO cells
# Procedure: as §1, with “respectively).” for “respectively). Although DPPIV primarily hydrolyses dipeptides with a proline in the penultimate position, it is well documented that alanine in the penultimate position may also render a dipeptide sequence susceptible to cleavage by DPPIV (8).”
# The primary substrate used for determining DPPIV activity in all assays was Gly-Pro-p-nitroanilide (Gly-Pro-pNA; Sigma), which is hydrolyzed by DPPIV to release pNA absorbing strongly at 405 nm. […] Inhibition of the hydrolysis of Gly-Pro-pNA was determined in the presence of the specific DPPIV inhibitor Diprotin A (Bachem, King of Prussia, Pa.). […]
# [3] = Lineweaver-Burke transformation
# [4] = unit defined at pH7.6 and 20° C.
# T1 sequence (P27487 29-766 limits assumed): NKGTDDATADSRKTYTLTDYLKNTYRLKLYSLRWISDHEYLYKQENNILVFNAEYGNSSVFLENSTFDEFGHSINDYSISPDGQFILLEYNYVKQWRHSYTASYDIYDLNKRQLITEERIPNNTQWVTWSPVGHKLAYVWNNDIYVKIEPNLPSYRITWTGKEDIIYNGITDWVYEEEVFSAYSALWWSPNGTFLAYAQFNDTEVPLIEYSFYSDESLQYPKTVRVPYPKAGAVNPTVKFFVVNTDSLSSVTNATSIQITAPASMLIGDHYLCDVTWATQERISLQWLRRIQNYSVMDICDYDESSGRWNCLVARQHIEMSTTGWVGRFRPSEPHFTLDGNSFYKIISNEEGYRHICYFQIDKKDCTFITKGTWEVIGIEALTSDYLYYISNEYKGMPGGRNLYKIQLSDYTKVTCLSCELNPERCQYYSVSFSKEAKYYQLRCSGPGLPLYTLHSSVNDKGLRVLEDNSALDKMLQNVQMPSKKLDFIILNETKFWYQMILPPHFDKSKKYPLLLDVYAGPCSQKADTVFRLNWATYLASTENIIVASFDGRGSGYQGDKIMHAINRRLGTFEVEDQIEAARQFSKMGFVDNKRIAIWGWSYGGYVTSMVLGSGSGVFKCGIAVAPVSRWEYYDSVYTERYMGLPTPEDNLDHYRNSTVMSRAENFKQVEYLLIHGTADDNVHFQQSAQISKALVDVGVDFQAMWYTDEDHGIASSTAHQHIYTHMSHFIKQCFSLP
Structure (SMILES),IC50 ([1]; substrate Gly-Pro-pNA) [µM],"Km [1, 3] [µM]","Vmax, using Gly-Pro-pNA as substrate [1, 4] [U/nmol serum DPPIV]","Km [2, 3] [µM]","Vmax, using Gly-Pro-pNA as substrate [2, 4] [U/nmol rsCD26]"
CC[C@H](C)[C@H](N)C(=O)N1CCC[C@H]1C(=O)N[C@H](C(=O)O)[C@@H](C)CC [Diprotin A],250,,,,
"NCC(=O)N1CCC[C@H]1C(=O)Nc1ccc([N+](=O)[O-])cc1 [Gly-Pro-pNA, Gly-Pro-p-nitroanilide] (H-Gly-Pro-pNA)",,280,0.65,280,1.52
